Test results reported in PubChem BioAssay AID2060487 (Molecular Pharmacology Branch, DTP, NCI, 2025).
pIC50: −log10 of the molar value.

Tested on: 997537-175-T-J1-PDC complex spheroid viability
Assay: Anticancer human tumor 997537-175-T-J1-PDC patient-derived colon adenocarcinoma cell line growth inhibition [GQUAD]
Details: for pIC50: curve of first compound; for viability, T/C: stronger effect = lower value
Summary of the method: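 Viability of tumor cells grown as complex spheroids with endothelial and stromal cells, exposed to drug combinations. Top concentration at or near clinical Cmax (else 10 microM), diluted in half-log increments.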
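Further: spheroids exposed to the agents for 7 days.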
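Wherever viability, T/C is given: 100% = DMSO vehicle control viability.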

## Cc1cccc(N(C)C(=O)C2C(O)CCN2c2nc(C)cc(C(F)(F)F)c2C#N)c1 (configuration not stated) + CN(C)c1ccc(Nc2c3ccc(NC(=O)CCN4CCCC4)cc3nc3cc(NC(=O)CCN4CCCC4)ccc23)cc1
Second compound 0.0316 µM
  pIC50: < 5.00
Second compound 0.1 µM
  pIC50: < 5.00
Second compound 0.316 µM
  pIC50: < 5.00
Second compound 1 µM
  pIC50: < 5.00
Second compound 3.16 µM
  pIC50: < 5.00
Second compound 10 µM
  pIC50: < 5.00
Second compound 0.0316 µM, first compound 0.0316 µM
  viability, T/C: 97.8%
Second compound 0.0316 µM, first compound 0.1 µM
  viability, T/C: 101%
Second compound 0.0316 µM, first compound 0.316 µM
  viability, T/C: 101%
Second compound 0.0316 µM, first compound 1 µM
  viability, T/C: 80.2%
Second compound 0.0316 µM, first compound 3.16 µM
  viability, T/C: 85.4%
Second compound 0.0316 µM, first compound 10 µM
  viability, T/C: 105%
Second compound 0.1 µM, first compound 0.0316 µM
  viability, T/C: 91.5%
Second compound 0.1 µM, first compound 0.1 µM
  viability, T/C: 85.9%
Second compound 0.1 µM, first compound 0.316 µM
  viability, T/C: 87.7%
Second compound 0.1 µM, first compound 1 µM
  viability, T/C: 70.3%
Second compound 0.1 µM, first compound 3.16 µM
  viability, T/C: 103%
Second compound 0.1 µM, first compound 10 µM
  viability, T/C: 89.7%
Second compound 0.316 µM, first compound 0.0316 µM
  viability, T/C: 83.8%
Second compound 0.316 µM, first compound 0.1 µM
  viability, T/C: 85.7%
Second compound 0.316 µM, first compound 0.316 µM
  viability, T/C: 81.4%
Second compound 0.316 µM, first compound 1 µM
  viability, T/C: 77.7%
Second compound 0.316 µM, first compound 3.16 µM
  viability, T/C: 89.2%
Second compound 0.316 µM, first compound 10 µM
  viability, T/C: 104%
Second compound 1 µM, first compound 0.0316 µM
  viability, T/C: 84.9%
Second compound 1 µM, first compound 0.1 µM
  viability, T/C: 61.3%
Second compound 1 µM, first compound 0.316 µM
  viability, T/C: 83.2%
Second compound 1 µM, first compound 1 µM
  viability, T/C: 81.2%
Second compound 1 µM, first compound 3.16 µM
  viability, T/C: 104%
Second compound 1 µM, first compound 10 µM
  viability, T/C: 85.3%
Second compound 3.16 µM, first compound 0.0316 µM
  viability, T/C: 61.4%
Second compound 3.16 µM, first compound 0.1 µM
  viability, T/C: 91.3%
Second compound 3.16 µM, first compound 0.316 µM
  viability, T/C: 77%
Second compound 3.16 µM, first compound 1 µM
  viability, T/C: 93.8%
Second compound 3.16 µM, first compound 3.16 µM
  viability, T/C: 103%
Second compound 3.16 µM, first compound 10 µM
  viability, T/C: 103%
Second compound 10 µM, first compound 0.0316 µM
  viability, T/C: 72.5%
Second compound 10 µM, first compound 0.1 µM
  viability, T/C: 83.9%
Second compound 10 µM, first compound 0.316 µM
  viability, T/C: 106%
Second compound 10 µM, first compound 1 µM
  viability, T/C: 88.9%
Second compound 10 µM, first compound 3.16 µM
  viability, T/C: 106%
Second compound 10 µM, first compound 10 µM
  viability, T/C: 103%
